The values that follow are results of earlier work, collected in article PMC7687576 (In Vitro Cellular & Developmental Biology. Animal, 2020).

Data set [1] concerns CYP3A4. The following applies: EpiIntestinal tissues; ref Cui et al. [2020].
In data set [2] the test system is CYP3A4. The settings on record: Caco-2 cultures; ref Cui et al. [2020].
In data set [3] the test system is EpiIntestinal tissues. The settings on record: IL-6 5–20 ng/mL for 72 h; ref Simon et al. [2019].

With `Cc1ncc2n1-c1ccc(Cl)cc1C(c1ccccc1F)=NC2` [Midazolam], the “amount of 1-hydroxymidazolam (CYP3A4-selective metabolite) detected” value in data set [1] is given as “substantial amount”. Moreover, the “amount of 1-hydroxymidazolam metabolite detected” value in data set [2] was “negligible amount”.

As to IL-6: pro-inflammatory cytokine IL-6, in data set [3], the “decrease in CYP450 activity level” value is listed as 20–75% and the “reduction of CYP450 mRNA expression (CYP2C19, CYP2C9, CYP3A4)” value was 40–50%.
